Laboratory results as given in ChEMBL document CHEMBL5352423, “Discovery of potent human dihydroorotate dehydrogenase inhibitors based on a benzophenone scaffold” (Eur J Med Chem, 2022).
In brackets after ≈: the same amount, converted by molar mass. Activity calls are given as the source filed them. The calls are words filed in the database; no cut-off is given here.

Experiments:
[1] = Toxicity in BALB/c mouse assessed as histopathological changes in kidney administered at 500 mg/kg, po for 14 days; type: organism-based; conditions: in vivo, 336 h, time 14 day
Raji [2] = assay: Antiproliferative activity against human Raji cells incubated for 96 hrs by MTT assay; type: functional, cell-based
Raji [3] = assay: Induction of cell cycle arrest in human Raji cells assessed as accumulation cells in S-phase at 0.0625 uM for 24 hrs by PI/RNAse staining method (reference value: 42.8%); type: functional
[4] = Toxicity in BALB/c mouse assessed as change in blood MPV administered at 500 mg/kg, po for 14 days; type: organism-based; conditions: in vivo, 336 h, time 14 day
[5] = Toxicity in BALB/c mouse assessed as change in blood neutrophil administered at 500 mg/kg, po for 14 days; type: organism-based; conditions: in vivo, 336 h, time 14 day
[6] = Toxicity in BALB/c mouse assessed as change in blood PLT administered at 500 mg/kg, po for 14 days; type: organism-based; conditions: in vivo, 336 h, time 14 day
U-937 = assay: Antiproliferative activity against human U-937 cells incubated for 96 hrs by MTT assay; type: functional, cell-based; conditions: U-937, 96 h
[7] = biological target: T1, Dihydroorotate dehydrogenase (quinone), mitochondrial (Homo sapiens, UniProt Q02127); assay: Inhibition of human DHODH at 100 nM for 30 mins relative to control
T1 sequence (Q02127 whole entry): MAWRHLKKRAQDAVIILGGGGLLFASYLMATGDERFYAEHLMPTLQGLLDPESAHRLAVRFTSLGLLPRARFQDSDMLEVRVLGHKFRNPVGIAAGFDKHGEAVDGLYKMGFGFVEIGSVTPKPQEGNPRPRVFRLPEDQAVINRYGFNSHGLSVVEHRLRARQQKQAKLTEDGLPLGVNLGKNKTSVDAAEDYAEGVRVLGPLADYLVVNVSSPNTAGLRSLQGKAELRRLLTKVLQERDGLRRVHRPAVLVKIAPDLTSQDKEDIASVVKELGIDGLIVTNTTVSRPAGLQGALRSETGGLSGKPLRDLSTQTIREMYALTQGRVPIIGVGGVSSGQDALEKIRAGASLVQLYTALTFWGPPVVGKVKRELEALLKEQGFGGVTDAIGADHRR

HCT-116 [8] = assay: Induction of cell cycle arrest in human HCT-116 cells assessed as accumulation cells in S-phase at 0.0625 uM for 24 hrs by PI/RNAse staining method (reference value: 30.2%); type: functional
[9] = biological target: T1, Dihydroorotate dehydrogenase (quinone), mitochondrial; assay: Inhibition of human DHODH at 1 uM for 30 mins relative to control
[10] = Toxicity in BALB/c mouse assessed as change in blood MCHC administered at 500 mg/kg, po for 14 days; type: organism-based; conditions: in vivo, 336 h, time 14 day
A-375 = assay: Antiproliferative activity against human A-375 cells incubated for 96 hrs by MTT assay; type: functional, cell-based; conditions: A-375, 96 h
Raji [11] = assay: Antiproliferative activity against human Raji cells assessed as inhibition of cell growth at 0.025 uM relative to control; type: functional
Raji [12] = assay: Induction of cell cycle arrest in human Raji cells assessed as accumulation cells in S-phase at 0.125 uM for 24 hrs by PI/RNAse staining method (reference value: 42.8%); type: functional
[13] = Toxicity in BALB/c mouse assessed as change in blood lymphocytes administered at 500 mg/kg, po for 14 days; type: organism-based, Lymphocyte; conditions: in vivo, 336 h, time 14 day
Raji [14] = assay: Antitumor activity against human Raji cells xenografted in NOD-SCID mouse assessed as tumor growth inhibition at 30 mg/kg, po administered for 24 days relative to control; type: functional; conditions: 576 h, time 24 day, read-out: TGI
[15] = biological target: T1, Dihydroorotate dehydrogenase (quinone), mitochondrial; assay: Inhibition of human DHODH incubated for 30 mins
[16] = Toxicity in BALB/c mouse assessed as change in blood MCH administered at 500 mg/kg, po for 14 days; type: organism-based; conditions: in vivo, 336 h, time 14 day
[17] = Toxicity in BALB/c mouse assessed as lethal dose administered orally for 14 days; conditions: in vivo, route po, time 14 day
Raji [18] = assay: Antiproliferative activity against human Raji cells assessed as inhibition of cell growth at 0.1 uM relative to control; type: functional
[19] = Toxicity in BALB/c mouse assessed as change in blood RBC administered at 500 mg/kg, po for 14 days; type: organism-based; conditions: in vivo, 336 h, time 14 day
HCT-116 [20] = assay: Antiproliferative activity against human HCT-116 cells incubated for 96 hrs by MTT assay; type: functional, cell-based; conditions: HCT-116, 96 h
[21] = Aqueous solubility of compound; type: physicochemical; conditions: buffer
[22] = Cytotoxicity against human HL7702 cells incubated for 96 hrs by MTT assay; type: toxicity, cell-based, L02
[23] = Toxicity in NOD-SCID mouse xenografted with human Raji cells assessed as change in body weight at 30 mg/kg, po administered for 24 days; type: organism-based; conditions: in vivo, 576 h, time 24 day
Raji [24] = assay: Antiproliferative activity against human Raji cells assessed as inhibition of cell growth at 0.05 uM relative to control; type: functional
Raji [25] = assay: Antiproliferative activity against human Raji cells assessed as inhibition of cell growth at 0.0125 uM relative to control; type: functional
[26] = Toxicity in BALB/c mouse assessed as histopathological changes in liver administered at 500 mg/kg, po for 14 days; type: organism-based; conditions: in vivo, 336 h, time 14 day
KG-1 = assay: Antiproliferative activity against human KG-1 cells incubated for 96 hrs by MTT assay; type: functional, cell-based; conditions: KG-1, 96 h
Raji [27] = assay: Induction of cell cycle arrest in human Raji cells assessed as accumulation cells in S-phase at 0.25 uM for 24 hrs by PI/RNAse staining method (reference value: 42.8%); type: functional
[28] = Toxicity in BALB/c mouse assessed as histopathological changes in spleen administered at 500 mg/kg, po for 14 days; type: organism-based; conditions: in vivo, 336 h, time 14 day
HCT-116 [29] = assay: Antitumor activity against human HCT-116 cells xenografted in NOD-SCID mouse assessed as tumor growth inhibition at 30 mg/kg, po administered for 24 days relative to control; type: functional; conditions: HCT-116, 576 h, time 24 day, read-out: TGI
[30] = Toxicity in BALB/c mouse assessed as change in blood RDW administered at 500 mg/kg, po for 14 days; type: organism-based; conditions: in vivo, 336 h, time 14 day
HCT-116 [31] = assay: Antiproliferative activity against human HCT-116 cells assessed as inhibition of cell growth at 0.0125 to 0.2 uM; type: functional, cell-based; conditions: dose 0.0125-0.2 µM
[32] = Selectivity index ratio of IC50 for human HL7702 cells to IC50 for human Raji cells; type: toxicity; conditions: HL7702 cells and Raji cells, read-out: Ratio IC50
[33] = Toxicity in BALB/c mouse assessed as histopathological changes in lung administered at 500 mg/kg, po for 14 days; type: organism-based; conditions: in vivo, 336 h, time 14 day
HCT-116 [34] = assay: Induction of cell cycle arrest in human HCT-116 cells assessed as accumulation cells in S-phase at 0.25 uM for 24 hrs by PI/RNAse staining method (reference value: 30.2%); type: functional
[35] = Toxicity in BALB/c mouse assessed as change in blood MCV administered at 500 mg/kg, po for 14 days; type: organism-based; conditions: in vivo, 336 h, time 14 day
[36] = Toxicity in BALB/c mouse assessed as change in blood HGB administered at 500 mg/kg, po for 14 days; type: organism-based; conditions: in vivo, 336 h, time 14 day
[37] = biological target: Voltage-gated inwardly rectifying potassium channel KCNH2 (Homo sapiens, UniProt Q12809); assay: Inhibition of human ERG; type: toxicity
Voltage-gated inwardly rectifying potassium channel KCNH2, sequence (Q12809 whole entry): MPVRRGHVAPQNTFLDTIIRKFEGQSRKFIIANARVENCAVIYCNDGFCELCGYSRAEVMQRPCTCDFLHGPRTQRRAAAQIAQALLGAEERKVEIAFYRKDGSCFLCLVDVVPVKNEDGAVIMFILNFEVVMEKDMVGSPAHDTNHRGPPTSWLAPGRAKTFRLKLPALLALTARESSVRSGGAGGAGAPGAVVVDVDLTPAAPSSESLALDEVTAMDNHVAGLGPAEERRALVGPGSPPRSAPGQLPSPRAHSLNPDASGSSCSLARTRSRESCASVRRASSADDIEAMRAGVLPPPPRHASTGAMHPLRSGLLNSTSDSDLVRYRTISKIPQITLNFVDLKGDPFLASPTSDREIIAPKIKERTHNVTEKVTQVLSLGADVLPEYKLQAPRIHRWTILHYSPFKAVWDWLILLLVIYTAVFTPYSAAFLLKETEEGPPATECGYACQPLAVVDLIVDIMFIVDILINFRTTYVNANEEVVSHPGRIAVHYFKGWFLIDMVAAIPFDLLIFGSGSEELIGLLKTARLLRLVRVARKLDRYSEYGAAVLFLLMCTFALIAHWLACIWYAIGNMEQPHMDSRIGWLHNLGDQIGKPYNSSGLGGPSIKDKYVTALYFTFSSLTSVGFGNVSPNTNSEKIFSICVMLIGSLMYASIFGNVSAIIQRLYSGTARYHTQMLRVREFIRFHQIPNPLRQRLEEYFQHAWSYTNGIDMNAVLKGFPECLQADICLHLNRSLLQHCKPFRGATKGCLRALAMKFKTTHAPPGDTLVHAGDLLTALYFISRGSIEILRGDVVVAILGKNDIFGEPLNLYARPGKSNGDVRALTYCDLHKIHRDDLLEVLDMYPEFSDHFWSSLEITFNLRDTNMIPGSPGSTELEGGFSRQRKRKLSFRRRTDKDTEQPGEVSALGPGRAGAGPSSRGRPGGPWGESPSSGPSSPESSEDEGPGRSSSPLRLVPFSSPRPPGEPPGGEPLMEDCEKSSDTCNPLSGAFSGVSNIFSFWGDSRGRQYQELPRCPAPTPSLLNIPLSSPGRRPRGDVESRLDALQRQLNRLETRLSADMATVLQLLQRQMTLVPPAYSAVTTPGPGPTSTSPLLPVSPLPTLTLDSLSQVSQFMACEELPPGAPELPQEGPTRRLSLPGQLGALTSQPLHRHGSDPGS

[38] = Cytotoxicity against human HCoEpiC cells incubated for 96 hrs by MTT assay; type: toxicity, cell-based
Raji [39] = assay: Rescue of cell viability in human Raji cells assessed cell growth inhibition rate at 0.0125 to 0.2 uM in presence of uridine; type: functional; conditions: dose 0.0125-0.2 µM
Kasumi 1 = assay: Antiproliferative activity against human Kasumi 1 cells incubated for 96 hrs by MTT assay; type: functional, cell-based; conditions: Kasumi 1, 96 h
HCT-116 [40] = assay: Induction of cell cycle arrest in human HCT-116 cells assessed as accumulation cells in S-phase at 0.125 uM for 24 hrs by PI/RNAse staining method (reference value: 30.2%); type: functional
[41] = Toxicity in BALB/c mouse assessed as change in blood HCT administered at 500 mg/kg, po for 14 days; type: organism-based; conditions: in vivo, 336 h, time 14 day
[42] = Toxicity in NOD-SCID mouse xenografted with human Raji cells assessed as death at 30 mg/kg, po administered for 24 days; type: organism-based; conditions: in vivo, 576 h, time 24 day
[43] = Lipophilicity, logP of compound; type: physicochemical; conditions: octanol/water
[44] = Toxicity in BALB/c mouse assessed as decrease in alkaline phosphatase administered at 500 mg/kg, po for 14 days; type: organism-based; conditions: in vivo, 336 h, time 14 day
Raji [45] = assay: Antiproliferative activity against human Raji cells assessed as inhibition of cell growth at 0.2 uM relative to control; type: functional
SUD4 = assay: Antiproliferative activity against human SU-DHL-4 cells incubated for 96 hrs by MTT assay; type: functional, cell-based; conditions: SU-DHL-4, 96 h
[46] = Cytotoxicity against human NCM460 cells incubated for 96 hrs by MTT assay; type: toxicity, cell-based
Raji [47] = assay: Antiproliferative activity against human Raji cells assessed as inhibition of cell growth; type: functional, cell-based; conditions: dose 0.0125-0.2 µM
[48] = Toxicity in BALB/c mouse assessed as change in blood WBC administered at 500 mg/kg, po for 14 days; type: organism-based; conditions: in vivo, 336 h, time 14 day

Compound: C/C(O)=C(\C#N)C(=O)Nc1cc(O[C@@H](C)C(F)(F)F)c(C(=O)c2ccccc2Cl)cc1F
- Activity [1]: Non-Toxic
- IC50 (Raji [2]): 0.06 µM
- Activity (Raji [3]): 54.2%
- Activity [4]: Non-Toxic
- Activity [5]: Non-Toxic
- Activity [6]: Non-Toxic
- IC50 (U-937): 0.22 µM
- inhibition [7]: 84.2%
- Activity (HCT-116 [8]): 44.6%
- inhibition [9]: 98.4%
- Activity [10]: Non-Toxic
- IC50 (A-375): 0.25 µM
- inhibition at 0.025 µM (Raji [11]): 20.7%
- Activity (Raji [12]): 60.6%
- Activity [13]: Non-Toxic
- inhibition in vivo at 30 mg/kg (Raji [14]): 58.3%
- IC50 [15]: 0.0109 µM
- Activity [16]: Non-Toxic
- LD50 at 336 h [17]: 500 mg/kg
- inhibition at 0.1 µM (Raji [18]): 52.2%
- Activity [19]: Non-Toxic
- IC50 (HCT-116 [20]): 0.14 µM
- solubility [21]: 61.7 µg/mL (≈ 131 µM)
- IC50 at 96 h [22]: 1.1 µM
- Activity [23]: Non-Toxic
- inhibition at 0.05 µM (Raji [24]): 36.8%
- inhibition at 0.0125 µM (Raji [25]): 17%
- Activity [26]: Toxic
- IC50 (KG-1): 0.43 µM
- Activity (Raji [27]): 67.1%
- Activity [28]: Non-Toxic
- inhibition in vivo at 30 mg/kg (HCT-116 [29]): 42.1%
- Activity [30]: Non-Toxic
- Activity (HCT-116 [31]): Active
- selectivity ratio [32]: 18.3
- Activity [33]: Non-Toxic
- Activity (HCT-116 [34]): 60.6%
- Activity [35]: Non-Toxic
- Activity [36]: Non-Toxic
- IC50 [37]: > 100 µM
- IC50 at 96 h [38]: 6.8 µM
- inhibition (INH) (Raji [39]): <5%
- IC50 (Kasumi 1): 0.1 µM
- Activity (HCT-116 [40]): 58.9%
- Activity [41]: Non-Toxic
- Activity [42]: Non-Toxic
- logP [43]: 2.49
- Activity [44]: Non-Toxic
- inhibition at 0.2 µM (Raji [45]): 60.9%
- IC50 (SUD4): 0.75 µM
- IC50 at 96 h [46]: 14.2 µM
- inhibition (Raji [47]): Dose-Dependent Effect
- Activity [48]: Non-Toxic
